Data reported in PubChem BioAssay AID256 (DTP/NCI, 2004).
Several values for one entry are separate records, joined by “and”; a condition that tells them apart may be missing. Identical values can stand only once. Toxic doses and inconclusive results are not listed. How the source made its calls: active means survival T/C of 150% or more; inactive means T/C below 125% in these data. Residues, ends and D or L forms follow the SMILES beside them. *: point of attachment. Cbz = O=C(OCc1ccccc1)*; Bn = c1ccc(C*)cc1

Test system: CD2F1 mice, L1210 leukemia ip, survival T/C
Assay: NCI In Vivo Anticancer Drug Screen. Data for tumor model L1210 Leukemia (intraperitoneal) in CD2F1 (CDF1) mice
Conditions: higher = longer survival
Outline: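 Read-out first: treated-group measurement over vehicle-control measurement, expressed as a ratio. Animals bore a transplanted tumor line and were dosed with compound or vehicle.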

[1] = endpoint: mean survival time, dose: 100.0 mg/kg/injection, schedule: Q01DX009 (ip), vehicle: saline with Tween-80
[2] = endpoint: mean survival time, dose: 400.0 mg/kg/injection, schedule: Q01DX009 (ip), vehicle: saline with Tween-80
[3] = endpoint: mean survival time, dose: 100.0 mg/kg/injection, schedule: Q04DX003 (ip), vehicle: saline with Tween-80
[4] = endpoint: mean survival time, dose: 200.0 mg/kg/injection, schedule: Q01DX009 (ip), vehicle: saline with Tween-80
[5] = endpoint: mean survival time, dose: 400.0 mg/kg/injection, schedule: Q04DX003 (ip), vehicle: saline with Tween-80
[6] = endpoint: mean survival time, dose: 200.0 mg/kg/injection, schedule: Q04DX003 (ip), vehicle: saline with Tween-80
[7] = endpoint: mean survival time, dose: 50.0 mg/kg/injection, schedule: Q01DX009 (ip), vehicle: saline with Tween-80
[8] = endpoint: mean survival time, dose: 100.0 mg/kg/injection, schedule: Q01DX001 (ip), vehicle: saline with Tween-80
[9] = endpoint: mean survival time, dose: 200.0 mg/kg/injection, schedule: Q01DX001 (ip), vehicle: saline with Tween-80
[10] = endpoint: mean survival time, dose: 400.0 mg/kg/injection, schedule: Q01DX001 (ip), vehicle: saline with Tween-80
[11] = endpoint: mean survival time, dose: 100.0 mg/kg/injection, schedule: Q04DX003 (ip), vehicle: saline
[12] = endpoint: mean survival time, dose: 200.0 mg/kg/injection, schedule: Q04DX003 (ip), vehicle: saline
[13] = endpoint: mean survival time, dose: 400.0 mg/kg/injection, schedule: Q04DX003 (ip), vehicle: saline
[14] = endpoint: mean survival time, dose: 100.0 mg/kg/injection, schedule: Q01DX001 (ip), vehicle: saline
[15] = endpoint: mean survival time, dose: 200.0 mg/kg/injection, schedule: Q01DX001 (ip), vehicle: saline
[16] = endpoint: mean survival time, dose: 400.0 mg/kg/injection, schedule: Q01DX001 (ip), vehicle: saline
[17] = endpoint: mean survival time, dose: 100.0 mg/kg/injection, schedule: Q01DX005 (ip), vehicle: saline
[18] = endpoint: mean survival time, dose: 200.0 mg/kg/injection, schedule: Q01DX005 (ip), vehicle: saline

Measured: T/C

CN(C)C(=S)NN
inactive: endpoint: mean survival time, dose: 1.5 mg/kg/injection, schedule: Q01DX001 (ip), vehicle: saline 92 % of control | endpoint: mean survival time, dose: 3.0 mg/kg/injection, schedule: Q01DX001 (ip), vehicle: saline 97 % of control | endpoint: mean survival time, dose: 6.0 mg/kg/injection, schedule: Q01DX001 (ip), vehicle: saline 97 % of control

C#CC(=O)c1ccccc1
inactive: endpoint: mean survival time, dose: 9.4 mg/kg/injection, schedule: Q04DX003 (ip), vehicle: saline 93 % of control

NCC1C2CCC(C2)C1CCCNCCCC1C2CCC(C2)C1CN (stereo unspecified)
inactive: endpoint: mean survival time, dose: 6.25 mg/kg/injection, schedule: Q04DX002 (ip), vehicle: saline with Tween-80 98 % of control | endpoint: mean survival time, dose: 12.5 mg/kg/injection, schedule: Q04DX002 (ip), vehicle: saline with Tween-80 107 % of control | endpoint: mean survival time, dose: 25.0 mg/kg/injection, schedule: Q04DX002 (ip), vehicle: saline with Tween-80 114 % of control

O=C(CNC(=O)c1ccccc1)N/N=C/c1cccc([N+](=O)[O-])c1
inactive: [1] 90 % of control | [2] 89 % of control

O=Cc1ccc(N=Nc2c(S(=O)(=O)O)cc3cc(S(=O)(=O)O)cc(O)c3c2O)cc1
inactive: [1] 100 % of control | [3] 96 % of control | [4] 88 % of control | [5] 88 % of control

CCCCCCCCP(=O)(N1CC1C)N1CC1C (stereo unspecified)
inactive: endpoint: mean survival time, dose: 6.25 mg/kg/injection, schedule: Q01DX009 (ip), vehicle: saline 98 % of control | endpoint: mean survival time, dose: 12.5 mg/kg/injection, schedule: Q01DX009 (ip), vehicle: saline 94 % of control | endpoint: mean survival time, dose: 25.0 mg/kg/injection, schedule: Q01DX009 (ip), vehicle: saline 96 % of control | endpoint: mean survival time, dose: 50.0 mg/kg/injection, schedule: Q01DX009 (ip), vehicle: saline 102 % of control

N#CC1CC(c2cccs2)Nc2ccccc2N1 (stereo unspecified)
inactive: [3] 94 % of control | [6] 90 % of control | [5] 100 % of control

CC(C)S(=O)(=O)/C(Cl)=C(/Cl)C(Cl)=C(Cl)Cl
inactive: [7] 106 % of control

COC(=O)C(Cc1ccccc1)NC(=O)C(CSCc1ccccc1)NC(=O)OCc1ccccc1 (stereo unspecified) (Cbz-Cys(Bn)-Phe-OMe; configuration not given here)
inactive: [8] 93 % of control | [1] 91 % of control | [9] 95 % of control | [10] 89 % of control

CCN1CCC(CC)(CN2c3ccccc3Sc3ccc(Cl)cc32)C1 (stereo unspecified)
inactive: [11] 100 % of control | [12] 96 % of control

COc1cc(C2C3CN(C4CCCCC4)C(=O)C3NN2C(C)=O)ccc1OC(C)=O (stereo unspecified)
inactive: [1] 93 % of control | [4] 95 % of control | [2] 95 % of control

CCOC1OC(C(O)CO)C(O)C(O)C1O (stereo unspecified)
inactive: [11] 101 % of control | [12] 103 % of control | [13] 101 % of control

COc1cc2c(cc1OC)C(Cc1ccc([N+](=O)[O-])cc1)=NCC2
inactive: [14] 96 % of control | [15] 96 % of control | [16] 102 % of control

CSc1ncc(C=O)c(N)n1
inactive: [8] 96 % of control | [9] 97 % of control | [10] 95 % of control

CCN(CC)c1nc(Cl)nc(NC(C)C)n1
inactive: [1] 100 % of control | [11] 103 % of control | [4] 101 % of control | [12] 100 % of control | [2] 94 % of control | [13] 103 % of control

O=C1OC(=O)C2C1OC1C(=O)OC(=O)C12 (stereo unspecified)
inactive: endpoint: mean survival time, dose: 6.25 mg/kg/injection, schedule: Q04DX002 (ip), vehicle: saline 103 % of control | endpoint: mean survival time, dose: 12.5 mg/kg/injection, schedule: Q04DX002 (ip), vehicle: saline 106 % of control | endpoint: mean survival time, dose: 25.0 mg/kg/injection, schedule: Q04DX002 (ip), vehicle: saline 95 % of control

CCCCS(CCCC)=NS(=O)(=O)c1ccc(C)cc1
inactive: endpoint: mean survival time, dose: 50.0 mg/kg/injection, schedule: Q01DX009 (ip), vehicle: Klucel (hydroxypropylcellulose) (HPC) 90 % of control | endpoint: mean survival time, dose: 100.0 mg/kg/injection, schedule: Q01DX009 (ip), vehicle: Klucel (hydroxypropylcellulose) (HPC) 94 % of control | endpoint: mean survival time, dose: 200.0 mg/kg/injection, schedule: Q01DX009 (ip), vehicle: Klucel (hydroxypropylcellulose) (HPC) 90 % of control

CN1NC2(O)C(=O)N(C3CCCCC3)CC2C1c1ccccc1 (stereo unspecified)
inactive: [3] 86 % of control | [6] 93 % of control | [5] 101 % of control

c1ccc(Oc2ccc(Nc3c4ccccc4nc4ccccc34)cc2)cc1
inactive: endpoint: mean survival time, dose: 100.0 mg/kg/injection, schedule: Q04DX002 (ip), vehicle: saline with Tween-80 101 % of control | endpoint: mean survival time, dose: 200.0 mg/kg/injection, schedule: Q04DX002 (ip), vehicle: saline with Tween-80 101 % of control | endpoint: mean survival time, dose: 400.0 mg/kg/injection, schedule: Q04DX002 (ip), vehicle: saline with Tween-80 104 % of control

CC12CCC(O1)C1C(=O)NC(=O)C12 (stereo unspecified)
inactive: [3] 94 % of control | [6] 89 % of control | [5] 98 % of control

CO[C@@]12[C@@H]3N[C@@H]3CN1C1=C(C(=O)C(N3CCCC3)=C(C)C1=O)[C@@H]2COC(N)=O
inactive: endpoint: median survival time, dose: 25.0 mg/kg/injection, schedule: Q01DX001 (ip), vehicle: saline with Tween-80 111 % of control | endpoint: median survival time, dose: 50.0 mg/kg/injection, schedule: Q01DX001 (ip), vehicle: saline with Tween-80 91 % of control
active: endpoint: median survival time, dose: 3.12 mg/kg/injection, schedule: Q01DX001 (ip), vehicle: saline with Tween-80 165 % of control | endpoint: median survival time, dose: 6.26 mg/kg/injection, schedule: Q01DX001 (ip), vehicle: saline with Tween-80 151 % of control | endpoint: median survival time, dose: 12.0 mg/kg/injection, schedule: Q01DX001 (ip), vehicle: saline with Tween-80 152 % of control and 197 % of control | endpoint: median survival time, dose: 12.5 mg/kg/injection, schedule: Q01DX001 (ip), vehicle: saline with Tween-80 370 % of control | endpoint: median survival time, dose: 24.0 mg/kg/injection, schedule: Q01DX001 (ip), vehicle: saline with Tween-80 171 % of control and 326 % of control

O=[N+]([O-])/C=C\c1ccccc1
inactive: [3] 96 % of control | [6] 90 % of control | [5] 86 % of control

NC(=O)c1cn(C2OC(CO)C(O)C2O)nc1N (stereo unspecified)
inactive: [17] 100 % of control | [18] 105 % of control

O=[N+]([O-])c1ccc(N/N=C(\CO)c2ccccc2)c([N+](=O)[O-])c1
inactive: [11] 109 % of control | [12] 97 % of control | [13] 108 % of control

NC(=S)c1c2ccccc2nn1C1OC(CO)C(O)C1O (stereo unspecified)
inactive: [17] 98 % of control | [18] 101 % of control

O=CNc1cc2ccccc2c2ccc3ccccc3c12
inactive: [7] 94 % of control | [1] 94 % of control | [3] 89 % of control | [4] 97 % of control | [6] 89 % of control

S=c1[nH]c2ccccc2nc1NCc1ccccc1
inactive: endpoint: mean survival time, dose: 100.0 mg/kg/injection, schedule: Q04DX003 (ip), vehicle: other 91 % of control | endpoint: mean survival time, dose: 200.0 mg/kg/injection, schedule: Q04DX003 (ip), vehicle: other 93 % of control | endpoint: mean survival time, dose: 400.0 mg/kg/injection, schedule: Q04DX003 (ip), vehicle: other 93 % of control

CC1=CCCN(CCc2c[nH]c3ccccc23)C1
inactive: endpoint: mean survival time, dose: 50.0 mg/kg/injection, schedule: Q04DX003 (ip), vehicle: saline with Tween-80 97 % of control | [8] 90 % of control | [3] 101 % of control | [9] 90 % of control

N=c1c2ccccc2nnn1Cc1ccccc1
inactive: [8] 98 % of control | [9] 96 % of control | [10] 93 % of control

Clc1ccc(-c2cc(C3CO3)c3cc(Cl)cc(Cl)c3n2)cc1 (stereo unspecified)
inactive: [14] 91 % of control | [15] 97 % of control | [16] 91 % of control

O=C(CCCN1CCC2(CC1)CC(=O)N(N1CCCC1)C2=O)c1ccc(F)cc1
inactive: [8] 108 % of control | [9] 116 % of control | [10] 116 % of control

CCCCCCCCCCC(Sc1n[nH]c(=O)[nH]c1=O)C(=O)OCC (stereo unspecified)
inactive: endpoint: mean survival time, dose: 12.5 mg/kg/injection, schedule: Q01DX005 (ip), vehicle: distilled water + Tween-80 97 % of control | endpoint: mean survival time, dose: 25.0 mg/kg/injection, schedule: Q01DX005 (ip), vehicle: distilled water + Tween-80 97 % of control | endpoint: mean survival time, dose: 50.0 mg/kg/injection, schedule: Q01DX005 (ip), vehicle: distilled water + Tween-80 95 % of control | endpoint: mean survival time, dose: 100.0 mg/kg/injection, schedule: Q01DX005 (ip), vehicle: distilled water + Tween-80 95 % of control | endpoint: mean survival time, dose: 200.0 mg/kg/injection, schedule: Q01DX005 (ip), vehicle: distilled water + Tween-80 97 % of control

CCN(CC)C(=O)c1cc[n+](Cc2ccc(Cl)cc2)cc1
inactive: [11] 106 % of control | [12] 103 % of control

CC1(C)C(=O)CCC2(C)C(OC(=O)c3ccc(C(=O)O)cc3)CCCC12 (stereo unspecified)
inactive: [3] 96 % of control | [6] 93 % of control | [5] 93 % of control

CC(C)(C)CC(C)(C)c1ccc(OCCOS(=O)(=O)c2cccc([N+](=O)[O-])c2)cc1
inactive: [7] 96 % of control | [1] 89 % of control | [4] 94 % of control
